Reference: ChEMBL document CHEMBL5244260, “Aldose reductase and protein tyrosine phosphatase 1B inhibitors as a promising therapeutic approach for diabetes mellitus” (Eur J Med Chem, 2020)
pIC50, pKi: −log10 of the molar value. Values belong to the compound of their own block, whether it stands above or below them.

What was measured:
[1] = species on record: Homo sapiens; experiment: Selectivity ratio of Ki for human PTP1B expressed in Escherichia coli BL21 (DE3) to Ki for TCPTP (unknown origin)
[2] = species on record: Homo sapiens; experiment: Selectivity ratio of Ki for human PTP1B expressed in Escherichia coli BL21 (DE3) to Ki for CD45 (unknown origin)
[3] = species on record: Homo sapiens; experiment: Selectivity ratio of Ki for human PTP1B expressed in Escherichia coli BL21 (DE3) to Ki for LAR (unknown origin)
[4] = species on record: Homo sapiens; experiment: Selectivity ratio of Ki for human PTP1B expressed in Escherichia coli BL21 (DE3) to Ki for Calcineurin (unknown origin)
[5] = species on record: Homo sapiens; experiment: Selectivity ratio of Ki for human PTP1B expressed in Escherichia coli BL21 (DE3) to Ki for SHP-2 (unknown origin)
[6] = target: T1, Tyrosine-protein phosphatase non-receptor type 1 (Homo sapiens, UniProt P18031); experiment: Inhibition of human PTP1B using pNPP as substrate incubated for 30 min
T1 sequence (P18031 whole entry): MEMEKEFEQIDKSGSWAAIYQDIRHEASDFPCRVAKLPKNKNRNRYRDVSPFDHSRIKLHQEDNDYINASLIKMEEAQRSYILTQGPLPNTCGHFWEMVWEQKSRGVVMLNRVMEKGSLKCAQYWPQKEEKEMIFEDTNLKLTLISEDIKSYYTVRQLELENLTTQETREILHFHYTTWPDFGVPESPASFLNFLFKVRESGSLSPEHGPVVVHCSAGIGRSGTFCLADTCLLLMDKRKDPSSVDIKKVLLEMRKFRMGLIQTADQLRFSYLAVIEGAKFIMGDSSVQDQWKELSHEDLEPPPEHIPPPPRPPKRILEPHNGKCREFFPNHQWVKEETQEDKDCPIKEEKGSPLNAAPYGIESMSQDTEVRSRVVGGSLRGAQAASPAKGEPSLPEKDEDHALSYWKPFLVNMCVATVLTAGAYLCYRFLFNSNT

[7] = target: Aldo-keto reductase family 1 member B1 (Rattus norvegicus, UniProt P07943); experiment: Inhibition of ALR in Fischer-344 rat lens using D,L-glyceraldehyde as substrate in presence of NADPH measured after 3 mins by spectrophotometric assay; type: tissue-based
[8] = Inhibition of ALR2 in Wistar rat lens using D,L-glyceraldehyde as substrate preincubated for 10 mins in presence of NADPH followed by substrate addition and measured after 5 mins by spectrophotometric assay; type: tissue-based
[9] = target: T1, Tyrosine-protein phosphatase non-receptor type 1; experiment: Inhibition of human PTP1B (1 to 298 residues) expressed in Escherichia coli using FDP as substrate by microplate reader
[10] = species on record: Homo sapiens; experiment: Selectivity ratio of IC50 for human PTP1B (1 to 298 residues) expressed in Escherichia coli BL21 (DE3) to IC50 for TCPTP (unknown origin)
[11] = target: Aldo-keto reductase family 1 member B1 (Sus scrofa, UniProt P80276); experiment: Inhibition of ALR2 in pig lens using D,L-glyceraldehyde as substrate preincubated for 4 mins in presence of NADPH followed by substrate addition and measured after 4 mins by spectrophotometric assay; type: tissue-based
[12] = target: T1, Tyrosine-protein phosphatase non-receptor type 1; experiment: Inhibition of human PTP1B (1 to 321 residues) expressed in Escherichia coli using FDP as substrate
[13] = target: T2, Receptor-type tyrosine-protein phosphatase C (Homo sapiens, UniProt P08575); experiment: Inhibition of human CD45 (564 to […] residues) expressed in Escherichia coli using FDP as substrate incubated for 10 min
T2 sequence (P08575 whole entry): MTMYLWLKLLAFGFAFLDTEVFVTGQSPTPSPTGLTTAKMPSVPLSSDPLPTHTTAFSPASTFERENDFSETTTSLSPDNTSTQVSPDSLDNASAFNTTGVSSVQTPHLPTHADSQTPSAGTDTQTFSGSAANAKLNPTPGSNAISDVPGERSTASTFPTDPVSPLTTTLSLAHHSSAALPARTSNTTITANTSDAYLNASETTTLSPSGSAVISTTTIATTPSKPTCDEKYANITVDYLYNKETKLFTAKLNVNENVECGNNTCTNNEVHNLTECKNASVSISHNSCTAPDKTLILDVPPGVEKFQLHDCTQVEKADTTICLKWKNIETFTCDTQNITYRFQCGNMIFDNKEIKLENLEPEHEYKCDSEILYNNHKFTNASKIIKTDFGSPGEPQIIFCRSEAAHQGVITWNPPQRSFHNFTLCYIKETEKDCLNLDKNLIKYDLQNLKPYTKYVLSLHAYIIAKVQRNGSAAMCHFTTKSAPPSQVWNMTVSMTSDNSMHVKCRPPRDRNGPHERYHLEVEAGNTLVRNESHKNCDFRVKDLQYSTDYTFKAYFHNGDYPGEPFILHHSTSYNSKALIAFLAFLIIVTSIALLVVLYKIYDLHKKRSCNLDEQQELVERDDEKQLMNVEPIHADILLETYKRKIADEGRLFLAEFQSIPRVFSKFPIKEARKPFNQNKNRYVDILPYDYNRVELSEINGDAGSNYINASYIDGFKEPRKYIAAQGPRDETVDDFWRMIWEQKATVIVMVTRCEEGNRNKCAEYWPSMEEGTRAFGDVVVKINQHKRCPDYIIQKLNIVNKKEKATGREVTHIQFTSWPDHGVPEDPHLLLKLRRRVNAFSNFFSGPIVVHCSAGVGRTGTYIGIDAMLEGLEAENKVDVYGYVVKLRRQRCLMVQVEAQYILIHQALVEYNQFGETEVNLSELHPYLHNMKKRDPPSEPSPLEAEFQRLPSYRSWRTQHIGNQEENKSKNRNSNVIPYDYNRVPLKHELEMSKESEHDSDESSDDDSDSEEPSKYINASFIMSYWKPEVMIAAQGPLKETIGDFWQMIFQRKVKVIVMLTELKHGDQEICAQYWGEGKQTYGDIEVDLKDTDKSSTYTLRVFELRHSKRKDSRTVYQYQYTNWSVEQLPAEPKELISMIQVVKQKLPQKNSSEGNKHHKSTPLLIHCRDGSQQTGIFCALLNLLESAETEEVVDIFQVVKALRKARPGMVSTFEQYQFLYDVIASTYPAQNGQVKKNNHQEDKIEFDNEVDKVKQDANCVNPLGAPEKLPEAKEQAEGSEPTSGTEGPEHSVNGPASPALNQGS

[14] = Inhibition of human recombinant ALR1 expressed in Escherichia coli by Coomassie reagent assay
[15] = target: Aldo-keto reductase family 1 member B1 (Homo sapiens, UniProt P15121); experiment: Inhibition of ALR2 (unknown origin)
[16] = target: T3, Tyrosine-protein phosphatase non-receptor type 2 (Homo sapiens, UniProt P17706); experiment: Inhibition of Flag-tagged human TCPTP (1 to 296 residues) expressed in Escherichia coli BL21 using FDP as substrate
T3 sequence (P17706 whole entry): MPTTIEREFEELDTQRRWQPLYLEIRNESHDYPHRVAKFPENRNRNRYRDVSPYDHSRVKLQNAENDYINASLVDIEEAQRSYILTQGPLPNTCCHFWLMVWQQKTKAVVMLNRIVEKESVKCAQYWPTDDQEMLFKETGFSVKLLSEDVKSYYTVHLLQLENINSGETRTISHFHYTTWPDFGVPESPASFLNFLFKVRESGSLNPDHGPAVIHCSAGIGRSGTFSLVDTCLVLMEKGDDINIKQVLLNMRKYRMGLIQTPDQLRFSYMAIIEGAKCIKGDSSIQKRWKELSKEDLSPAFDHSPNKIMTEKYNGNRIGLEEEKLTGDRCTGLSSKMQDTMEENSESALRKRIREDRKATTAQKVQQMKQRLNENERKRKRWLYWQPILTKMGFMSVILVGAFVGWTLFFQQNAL

[17] = target: T1, Tyrosine-protein phosphatase non-receptor type 1; experiment: Inhibition of Flag-tagged human PTP1B (1 to 298 residues) expressed in Escherichia coli BL21 using FDP as substrate
[18] = Inhibition of ALR2 in rat lens using D,L-glyceraldehyde as substrate in presence of NADPH; type: tissue-based
[19] = target: T1, Tyrosine-protein phosphatase non-receptor type 1; experiment: Inhibition of human PTP1B (1 to 411 residues) expressed in Escherichia coli BL21 (DE3) using GNGDpYMPMSPKS as phosphopeptide substrate incubated for 30 mins by malachite green reagent assay
[20] = species on record: Homo sapiens; experiment: Selectivity ratio of Ki for PTP1B (unknown origin) to Ki for TCPTP (unknown origin)
[21] = target: T1, Tyrosine-protein phosphatase non-receptor type 1; experiment: Inhibition of PTP1B (unknown origin) assessed as inhibition constant
[22] = species on record: Homo sapiens; experiment: Selectivity ratio of Ki for PTP1B (unknown origin) to Ki for PTPalpha (unknown origin)
[23] = species on record: Homo sapiens; experiment: Selectivity ratio of Ki for PTP1B (unknown origin) to Ki for LAR (unknown origin)

Ratio Ki [1]: 2
Ratio Ki [2]: 2700
Ratio Ki [3]: 36
Ratio Ki [4]: > 13000
Ratio Ki [5]: 104
Structure (SMILES): CC(=O)N[C@@H](Cc1ccc(N(C(=O)C(=O)O)c2ccccc2C(=O)O)c2ccccc12)C(=O)NCCCCCOc1cc2ccccc2cc1C(=O)O

pIC50 [6]: 6.55
Structure (SMILES): CCCCCCS(=O)(=O)NC(=O)c1ccc(CSCc2ccc(-c3ccccc3)cc2)cc1

pIC50 [7]: 7.35
Structure (SMILES): O=C(O)Cn1cc(-c2nc3ccccc3s2)cc1C(=O)c1ccccc1

pIC50 [8]: 7.03
Structure (SMILES): O=C(O)CC1=CN(/C=C/c2ccc(O)cc2)S(=O)(=O)c2ccccc21

pIC50 [9]: 8.30
Ratio IC50 [10]: 7.2
Structure (SMILES): COC(CC(C)C)c1ccc2ccc(CC(Cc3ccc(C(F)(F)P(=O)(O)O)cc3)(c3ccccc3)n3nnc4ccccc43)c(P(=O)(O)O)c2n1 (centres undefined)

pIC50 [11]: 4.74
Structure (SMILES): Cc1cc2c(s1)CCC1CC(=O)N(CCCCCC(=O)O)N=C21 (centres undefined)

pIC50 [12]: 8.22
pIC50 [13]: < 4.30
Structure (SMILES): O=C(c1ccccc1)C(Cc1ccc(C(F)(F)P(=O)(O)O)c(Cl)c1)c1ccccc1 (centres undefined)

pIC50 [14]: 4.46
Structure (SMILES): O=C(O)COc1cc(F)ccc1C(=S)NCc1cccc([N+](=O)[O-])c1

pIC50 [15]: 6.72
Structure (SMILES): C/C(=N\NC(=S)Nc1cccc(F)c1)c1ccc2c(c1)NC(=O)CO2

pIC50 [16]: 5.80
pIC50 [17]: 6.79
Structure (SMILES): Cc1noc(-c2ccc(C(C/C=C/c3ccccc3)(Cc3ccc(C(F)(F)P(=O)(O)O)cc3)n3nnc4ccccc43)cc2)n1 (centres undefined)

pIC50 [12]: 8.22
pIC50 [13]: < 4.30
Structure (SMILES): O=C(c1ccccc1)C(Cc1ccc(C(F)(F)P(=O)(O)O)c(Br)c1)c1ccccc1 (centres undefined)

pIC50 [18]: 5.70
Structure (SMILES): CC(C(=O)O)N1C(=O)C(=O)N(Cc2cccc([N+](=O)[O-])c2)C1=O (centres undefined)

pIC50 [19]: 7.10
Structure (SMILES): O=C1CN(c2c(O)cc(CC3CCCCC3)cc2F)S(=O)(=O)N1

Ratio Ki [20]: 20
pKi [21]: 5.16
Structure (SMILES): COC(=O)c1c(O)cccc1OC/C=C/c1ccc(F)c(-c2cc(C(=O)O)no2)c1

pIC50 [15]: 7.40
Structure (SMILES): O=C(O)CNC(=O)c1ccc(N2C(=O)/C(=C/c3cn(-c4ccccc4)nc3-c3cccc(F)c3)SC2=S)cc1

pIC50 [9]: 7.64
Structure (SMILES): O=P(O)(O)C(F)(F)c1ccc(C[C@](/C=C/c2ccccc2)(c2nc3ccccc3s2)n2nnc3ccccc32)cc1

pIC50 [18]: 7.12
Structure (SMILES): CC(C(=O)O)N1C(=O)C(=O)N(Cc2ccc(Cl)c(Cl)c2)C1=O (centres undefined)

pIC50 [9]: 7.89
Structure (SMILES): O=P(O)(O)C(F)(F)c1ccc(C[C@](c2ccc(C(F)(F)P(=O)(O)O)cc2)(c2ccc(F)c(F)c2)n2nnc3ccccc32)cc1

Ratio Ki [22]: 20
Ratio Ki [23]: 20
Structure (SMILES): O=C(O)COc1ccc(-c2cc(NC(=O)C(=O)O)c(C(=O)O)s2)cc1
